# Data reported in ChEMBL document CHEMBL4483862, “Open-source discovery of chemical leads for next-generation chemoprotective antimalarials” (2018).
# Test system: Plasmodium berghei
# Assay: Luciferase/luciferin-expressing antifolate-resistant parasites were used to infect a culture of HepG2 cells that were pre-incubated with compounds. Infected hepatocytes emit light due to the luciferase reaction. Assay results are presented as the percent inhibition of light emission compared to control. […]
# Type: functional
# Conditions: sporozoite; for IC90: read-out: LUCIFERASE INFECTION ASSAY - IC90
smiles,measurement,setting,value
Cc1cc(O)nc(N/N=C/c2cc(C)n(CC(F)(F)F)c2C)n1,IC50,"HEPG2TOX_HILL_SLOPE 2.49, HEPG2TOX_R_SQUARED 0.474, PBLUC_HILL_SLOPE 1.68, PBLUC_R_SQUARED 0.728, read-out: LUCIFERASE INFECTION ASSAY - IC50",3.36 µM
same,IC90,,> 10 µM
C/C(=N\NC(N)=S)c1ccc(CC(C)C)cc1,IC50,"HEPG2TOX_HILL_SLOPE 2.45, HEPG2TOX_R_SQUARED 0.895, PBLUC_HILL_SLOPE 1.49, PBLUC_R_SQUARED 0.577, read-out: LUCIFERASE INFECTION ASSAY - IC50",4.2 µM
same,IC90,,> 13.2 µM
COc1ccc(-c2ccnc3n[nH]c(-c4ccccc4)c23)cc1OC,IC50,"HEPG2TOX_HILL_SLOPE 2.45, HEPG2TOX_R_SQUARED 0.911, PBLUC_HILL_SLOPE 2.73, PBLUC_R_SQUARED 0.663, read-out: LUCIFERASE INFECTION ASSAY - IC50",1.48 µM
same,IC90,,3.3 µM
Cc1cc2ccccn2c1C(=O)c1ccc(-c2ccccc2)cc1,IC50,"HEPG2TOX_HILL_SLOPE 2.45, HEPG2TOX_R_SQUARED 0.945, PBLUC_HILL_SLOPE 19.6, PBLUC_R_SQUARED 0.427, read-out: LUCIFERASE INFECTION ASSAY - IC50",3.37 µM
same,IC90,,3.77 µM
CCCCc1ccc2nc(NC(=O)c3cnc(C)cn3)sc2c1,IC50,"HEPG2TOX_HILL_SLOPE 2.45, HEPG2TOX_R_SQUARED 0.834, PBLUC_HILL_SLOPE 1.44, PBLUC_R_SQUARED 0.354, read-out: LUCIFERASE INFECTION ASSAY - IC50",> 10 µM
same,IC90,,> 10 µM
COc1ccc(OC)c(-c2cs/c(=N\c3cccc(C)c3C)n2/N=C/c2ccc(C#N)cc2)c1,IC50,"HEPG2TOX_HILL_SLOPE 2.44, HEPG2TOX_R_SQUARED 0.954, PBLUC_HILL_SLOPE 4.56, PBLUC_R_SQUARED 0.492, read-out: LUCIFERASE INFECTION ASSAY - IC50",6.34 µM
same,IC90,,> 10 µM
CCN(CC)S(=O)(=O)c1ccc(C)c(NC(=O)CCc2ncc(-c3ccc(C)cc3)o2)c1,IC50,"HEPG2TOX_HILL_SLOPE 2.43, HEPG2TOX_R_SQUARED 0.985, PBLUC_HILL_SLOPE 1.82, PBLUC_R_SQUARED 0.587, read-out: LUCIFERASE INFECTION ASSAY - IC50",2.56 µM
same,IC90,,8.55 µM
Nc1ccc(OC2=C(Cl)C(=O)c3ccccc3C2=O)cc1,IC50,"HEPG2TOX_HILL_SLOPE 2.46, HEPG2TOX_R_SQUARED 0.976, PBLUC_HILL_SLOPE 10.6, PBLUC_R_SQUARED 0.396, read-out: LUCIFERASE INFECTION ASSAY - IC50",4.8 µM
same,IC90,,5.91 µM
c1csc(-c2cn3c(-c4ccc5ncccc5c4)cnc3cn2)c1,IC50,"HEPG2TOX_HILL_SLOPE 2.44, HEPG2TOX_R_SQUARED 0.922, PBLUC_HILL_SLOPE 1.55, PBLUC_R_SQUARED 0.705, read-out: LUCIFERASE INFECTION ASSAY - IC50",2.17 µM
same,IC90,,8.95 µM
CCOc1ccc2c(c1)O/C(=C\c1cc(Cl)cc3c1OCOC3)C2=O,IC50,"HEPG2TOX_HILL_SLOPE 2.45, HEPG2TOX_R_SQUARED 0.948, PBLUC_HILL_SLOPE 1.42, PBLUC_R_SQUARED 0.8, read-out: LUCIFERASE INFECTION ASSAY - IC50",1.39 µM
same,IC90,,6.53 µM
C/C(=N\NC(=S)Nc1cccc(Cl)c1C)c1cccc(C(F)(F)F)c1,IC50,"HEPG2TOX_HILL_SLOPE 2.50, 1.90, HEPG2TOX_R_SQUARED 0.489, 0.932, PBLUC_HILL_SLOPE 2.58, PBLUC_R_SQUARED 0.215, read-out: LUCIFERASE INFECTION ASSAY - IC50",7.21 µM
same,IC90,,> 10 µM
CC(=O)Nc1ccc(-c2cnc3ccc(-c4cccc(Oc5ccccc5)c4)nn23)cc1,IC50,"HEPG2TOX_HILL_SLOPE 2.48, HEPG2TOX_R_SQUARED 0.914, PBLUC_HILL_SLOPE 2.88, PBLUC_R_SQUARED 0.663, read-out: LUCIFERASE INFECTION ASSAY - IC50",1.56 µM
same,IC90,,3.35 µM
Cc1ccc(CNC(=O)CN2CCCN(Cc3ccc(Cl)cc3)CC2)cc1F,IC50,"HEPG2TOX_HILL_SLOPE 2.47, HEPG2TOX_R_SQUARED 0.19, PBLUC_HILL_SLOPE 1.42, PBLUC_R_SQUARED 0.29, read-out: LUCIFERASE INFECTION ASSAY - IC50",4.84 µM
same,IC90,,> 10 µM
O=[N+]([O-])c1ccc(Oc2cncc(Cl)c2)c(-c2nnc(-c3ccc(C(F)(F)F)cc3)o2)c1,IC50,"HEPG2TOX_HILL_SLOPE 2.45, HEPG2TOX_R_SQUARED 0.932, PBLUC_HILL_SLOPE 14.3, PBLUC_R_SQUARED 0.511, read-out: LUCIFERASE INFECTION ASSAY - IC50",6.55 µM
same,IC90,,> 7.13 µM
CO[C@H]1[C@@H](O)[C@@H](C)O[C@H](O[C@H]2CC[C@]3(C)C4CC[C@]5(C)[C@@H](C6=CC(=O)OC6)CC[C@]5(O)C4CC[C@]3(O)C2)[C@@H]1O (stereo not given in full),IC50,"HEPG2TOX_HILL_SLOPE 2.49, HEPG2TOX_R_SQUARED 0.917, PBLUC_HILL_SLOPE 3.98, PBLUC_R_SQUARED 0.716, read-out: LUCIFERASE INFECTION ASSAY - IC50",0.148 µM
same,IC90,,0.258 µM
O=C(NC1CC1)c1csc(C(O)c2cccc(OC(F)(F)F)c2)n1 (stereo not given),IC50,"HEPG2TOX_HILL_SLOPE 2.47, HEPG2TOX_R_SQUARED 0.742, PBLUC_HILL_SLOPE 2.02, PBLUC_R_SQUARED 0.793, read-out: LUCIFERASE INFECTION ASSAY - IC50",0.304 µM
same,IC90,,0.901 µM
CC1=C(C#N)C(/C=N/N(C)c2ncc(C(F)(F)F)cc2Cl)CC(=O)N1 (stereo not given),IC50,"HEPG2TOX_HILL_SLOPE 2.47, HEPG2TOX_R_SQUARED 0.965, PBLUC_HILL_SLOPE 13.6, PBLUC_R_SQUARED 0.0536, read-out: LUCIFERASE INFECTION ASSAY - IC50",3.27 µM
same,IC90,,3.84 µM
O=S(=O)(Nc1cc(Cl)c(Cl)cc1Cl)c1cc(C(F)(F)F)cc(C(F)(F)F)c1,IC50,"HEPG2TOX_HILL_SLOPE 2.48, HEPG2TOX_R_SQUARED 0.974, PBLUC_HILL_SLOPE 1.87, PBLUC_R_SQUARED 0.724, read-out: LUCIFERASE INFECTION ASSAY - IC50",0.611 µM
same,IC90,,1.98 µM
COc1cc(-c2ccc3ncc(-c4cccs4)n3n2)cc(OC)c1OC,IC50,"HEPG2TOX_HILL_SLOPE 2.45, HEPG2TOX_R_SQUARED 0.958, PBLUC_HILL_SLOPE 3.17, PBLUC_R_SQUARED 0.64, read-out: LUCIFERASE INFECTION ASSAY - IC50",2.04 µM
same,IC90,,4.08 µM
O=C(CSc1ccccc1)Nc1nc2ccccn2c1C(=O)NC1CCCCC1,IC50,"HEPG2TOX_HILL_SLOPE 2.44, HEPG2TOX_R_SQUARED 0.782, PBLUC_HILL_SLOPE 1.51, PBLUC_R_SQUARED 0.873, read-out: LUCIFERASE INFECTION ASSAY - IC50",2.83 µM
same,IC90,,> 8.08 µM
CN(C)C(=O)c1cccc(-c2cn3c(-c4ccc5c(ccn5C)c4)cnc3cn2)c1,IC50,"HEPG2TOX_HILL_SLOPE 2.46, HEPG2TOX_R_SQUARED 0.94, PBLUC_HILL_SLOPE 1.63, PBLUC_R_SQUARED 0.793, read-out: LUCIFERASE INFECTION ASSAY - IC50",2.64 µM
same,IC90,,> 8.34 µM
CCOC(=O)c1c(C)oc2c1cc(OS(=O)(=O)c1ccc(NC(C)=O)cc1)c1ccccc12,IC50,"HEPG2TOX_HILL_SLOPE 2.44, HEPG2TOX_R_SQUARED 0.99, PBLUC_HILL_SLOPE 3.26, PBLUC_R_SQUARED 0.643, read-out: LUCIFERASE INFECTION ASSAY - IC50",5.05 µM
same,IC90,,9.89 µM
Nc1ccc(-c2cnc3ccc(Cc4ccc(F)cc4)nn23)cn1,IC50,"HEPG2TOX_HILL_SLOPE 2.46, HEPG2TOX_R_SQUARED 0.531, PBLUC_HILL_SLOPE 14.2, PBLUC_R_SQUARED 0.359, read-out: LUCIFERASE INFECTION ASSAY - IC50",0.39 µM
same,IC90,,0.455 µM
Cc1ccc(Oc2ccc(OCC(=O)NCCNc3ccc4ccccc4c3)cc2)cc1,IC50,"HEPG2TOX_HILL_SLOPE 2.47, HEPG2TOX_R_SQUARED 0.879, PBLUC_HILL_SLOPE 3.02, PBLUC_R_SQUARED 0.699, read-out: LUCIFERASE INFECTION ASSAY - IC50",3.2 µM
same,IC90,,6.61 µM
Cc1nc(C2CC2)ncc1-c1nc(=Nc2ccccc2)s[nH]1,IC50,"HEPG2TOX_HILL_SLOPE 2.45, HEPG2TOX_R_SQUARED 0.884, PBLUC_HILL_SLOPE 3.42, PBLUC_R_SQUARED 0.283, read-out: LUCIFERASE INFECTION ASSAY - IC50",7.23 µM
same,IC90,,> 10.7 µM
OCc1ccc(-c2cnc3cnc(-c4ccccc4Cl)cn23)cc1,IC50,"HEPG2TOX_HILL_SLOPE 2.47, HEPG2TOX_R_SQUARED 0.702, PBLUC_HILL_SLOPE 3.47, PBLUC_R_SQUARED 0.368, read-out: LUCIFERASE INFECTION ASSAY - IC50",4.84 µM
same,IC90,,9.11 µM
CC(=O)c1cccc(-c2ccc3ncc(-c4cccc(C(F)(F)F)c4)n3n2)c1,IC50,"HEPG2TOX_HILL_SLOPE 2.43, HEPG2TOX_R_SQUARED 0.95, PBLUC_HILL_SLOPE 15.4, PBLUC_R_SQUARED 0.713, read-out: LUCIFERASE INFECTION ASSAY - IC50",0.353 µM
same,IC90,,0.407 µM
COc1ccc(CCC(=O)N(c2nc(-c3ccc(C)cc3)cs2)c2cc(C)ccc2C)cc1OC,IC50,"HEPG2TOX_HILL_SLOPE 2.48, HEPG2TOX_R_SQUARED 0.955, PBLUC_HILL_SLOPE 14.1, PBLUC_R_SQUARED 0.228, read-out: LUCIFERASE INFECTION ASSAY - IC50",3.6 µM
same,IC90,,4.21 µM
Cc1onc(-c2ccccc2)c1-c1ccnc(-c2ccc(Cl)cc2)n1,IC50,"HEPG2TOX_HILL_SLOPE 2.45, HEPG2TOX_R_SQUARED 0.972, PBLUC_HILL_SLOPE 2.42, PBLUC_R_SQUARED 0.716, read-out: LUCIFERASE INFECTION ASSAY - IC50",1.83 µM
same,IC90,,4.54 µM
O=C(Nc1ccc(OCc2ccccc2)cc1)c1csc(C(O)c2cccc(Cl)c2)n1 (stereo not given),IC50,"HEPG2TOX_HILL_SLOPE 2.48, HEPG2TOX_R_SQUARED 0.94, PBLUC_HILL_SLOPE 11.3, PBLUC_R_SQUARED 0.644, read-out: LUCIFERASE INFECTION ASSAY - IC50",3.07 µM
same,IC90,,3.73 µM
